Test results from PubChem BioAssay (NCI).
“And” between values parts separate entries of the source, which are not always exact repeats. Equal values may be shown once.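 Tested at 5 concentrations; 48 h exposure; 96-well plates; endpoints linearly interpolated, else capped at highest concentration. GI50 is the concentration that inhibits growth by half. Definition used: TGI = concentration required for complete inhibition of growth.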

Assays:
Test in all cases: NCI-60 cell line screen, 48 h
SN12C renal = system: SN12C renal
IGROV1 ovarian = system: IGROV1 ovarian
SF-539 CNS = system: SF-539 CNS
NCI-H460 lung = system: NCI-H460 lung
OVCAR-8 ovarian = system: OVCAR-8 ovarian
SNB-75 CNS = system: SNB-75 CNS
K-562 leukemia = system: K-562 leukemia
U251 CNS = system: U251 CNS
TK-10 renal = system: TK-10 renal
SK-MEL-2 melanoma = system: SK-MEL-2 melanoma

SMILES	TGI (SN12C renal) [µM]	TGI (IGROV1 ovarian) [µM]	TGI (SF-539 CNS) [µM]	TGI (NCI-H460 lung) [µM]	TGI (OVCAR-8 ovarian) [µM]	TGI (SNB-75 CNS) [µM]	TGI (K-562 leukemia) [µM]	TGI (U251 CNS) [µM]	TGI (TK-10 renal) [µM]	GI50 (SN12C renal) [µM]	GI50 (SNB-75 CNS) [µM]	GI50 (K-562 leukemia)	GI50 (U251 CNS) [µM]	GI50 (TK-10 renal) [µM]	GI50 (SK-MEL-2 melanoma) [µM]	TGI (SK-MEL-2 melanoma) [µM]	GI50 (IGROV1 ovarian) [µM]	GI50 (SF-539 CNS) [µM]	GI50 (NCI-H460 lung) [µM]	GI50 (OVCAR-8 ovarian) [µM]
N/C(=C\c1ccc(/C=C(\NC(=O)c2ccccc2)c2nc3c([nH]2)C(=O)c2ccccc2C3=O)cc1)c1nc2c([nH]1)C(=O)c1ccccc1C2=O	32.8	40.3	30.2	36.4	61.8	18.8	43.5	33.6	51.7											
COc1ccc2c(c1)C(=O)c1c-2n(CCCN=[N+]=[N-])c(=O)c2cc([N+](=O)[O-])ccc12	2.01			0.0469	> 100	20.5	16.3		37.3	0.314	3.47	0.0782 µM and 0.0653 µM	0.16	15.2	14.5	39.1				
CCOC(=O)NC(=O)c1cn(CCN(CCO)C(=O)NCCCCCCNC(=O)N(CCO)CCn2cc(C(=O)NC(=O)OCC)c(=O)[nH]c2=O)c(=O)[nH]c1=O	> 100	> 100	> 100	> 100	> 100	> 100	> 100	> 100								> 100				
COc1cc2c(c(OC)c1OC)-c1ccc(OC)c(=O)cc1C(NC(=O)CCCCCNc1ccc(N=[N+]=[N-])cc1[N+](=O)[O-])CC2 (configuration not stated)	11.5	> 31.6	< 0.01	< 0.0139	> 100			11.1	57.8							< 0.01				
COc1cc(-c2n/c(=C\c3c(O)[nH]c4ccccc34)cc3c2=Nc2ccccc2-3)ccc1F	34	48.9	33.2	58.2	31.5	63.6	62.1	4.19	13	10.7	16.2	5.88 µM	2.05	3.89	21.7	62.2	10.3	11.7	4.37	8.4
COc1nc2ccc(Cl)c(C(O)c3ccccc3)c2nc1OC (configuration not stated)	40.3	> 100	32.8	> 100	> 100	> 100	> 100	88	> 100							45				
CCCC[n+]1ccn(-c2nc3ccccc3n2C)c1	> 100	> 100	> 100	> 100	> 100	> 100	> 100	> 100	> 100							> 100				
COc1cc(/C=C2\C(=O)Nc3ccc(Cl)cc32)cc(OC)c1OC	> 100	> 100	45.6	> 100	> 100	21.8	> 100	32.4	78.3	26.5	7	4.44 µM	13.1	24	31.9	> 100	4.51	16.8	24.2	22.9
N#C[S-].[Ce+3].c1ccc(-c2ccccn2)nc1.c1ccc(-c2ccccn2)nc1.c1ccc(-c2ccccn2)nc1	> 100	69	> 100	> 100	> 100	> 100		> 100	97.6	12.8	15.2		13.3	11	25.4	63.1	24.5	27.3	13.1	13.5
